Experimental data taken from patent publication US4959367A, “4-oxo-1,2,3-benzotriazines” (Beecham Group P.L.C., priority 1987, dated 1990).

Test system: von Bezold-Jarisch reflex evoked by 5-HT
Test: Antagonism of the von Bezold-Jarisch reflex evoked by 5-HT in the anaesthetised rat
Assay type: in vivo
Details: male rats, urethane anaesthesia, submaximal 5-HT (usually 6 μg/kg) i.v., heart rate changes; for ED50: Rattus norvegicus, iv, read-out: ED50 (required to reduce the 5HT-evoked response to 50% of the control response)
Protocol: Antagonism of the von Bezold-Jarisch reflex
The compounds were evaluated for antagonism of the von Bezold-Jarisch reflex evoked by 5-HT in the anaesthetised rat according to the following method:
Male rats, 250-350 g, were anaesthetised with urethane (1.25 g/kg intraperitoneally) and blood pressure and heart rate recorded as described by Fozard J.R. et al., J. Cardiovasc. Pharmacol. 2, 229-245 (1980). A submaximal dose of 5-HT (usually 6 μg/kg) was given repeatedly by the intravenous route and changes in heart rate quantified. Compounds were given intravenously and the concentration required to reduce the 5HT-evoked response to 50% of the control response (ED50) was then determined.

CN1[C@@H]2CC[C@H]1C[C@@H](n1nnc3cc([N+](=O)[O-])c(Cl)cc3c1=O)C2 [Compound E3, (endo)-3-(8-Methyl-8-azabicyclo[3.2.1]oct-3-yl)-6-chloro-7-nitro-3,4-dihydro-4-oxo-benzotriazine]
ED50: 0.013 mg/kg

CN1[C@@H]2CC[C@H]1C[C@@H](n1nnc3ccc(Cl)cc3c1=O)C2 [Compound E1, (endo)-3-(8-Methyl-8-azabicyclo[3.2.1]oct-3-yl)-6-chloro-3,4-dihydro-4-oxo-1,2,3-benzotriazine]
ED50: 0.012 mg/kg

CN1[C@@H]2CC[C@H]1C[C@@H](n1nnc3cc(N)c(Cl)cc3c1=O)C2 [Compound E4, (endo)-3-(8-Methyl-8-azabicyclo[3.2.1]oct-3-yl)-7-amino-6-chloro-3,4-dihydro-4-oxo-benzotriazine]
ED50: 0.00017 mg/kg

CN1CC2CCC1CC2n1nnc2cc(N)c(Cl)cc2c1=O (stereo not drawn) [Compound E8, (5β)-3-(2-Methyl-2-azabicyclo[2.2.2]oct-5-yl)-7-amino-6-chloro-3,4-dihydro-4-oxobenzotriazine]
ED50 (required to reduce the 5HT-evoked response to 50% of the control response) (i.v.): 0.006 mg/kg
